Results from patent US9796760B2, “Modified peptide, CB receptor ligand, kit in vitro process for evaluating CB receptor bonds, uses, pharmaceutical composition for modulating CB receptor activity” (Proteimax Biotecnologia Ltda, priority 2012, dated 2017).
Entries after “also recorded” stand apart in the source; their conditions may differ. No end group written: not given here.

Assays:
CB1 receptor [1] = assay: ELISA with striate membranes and anti-CB1 antibody, receptor activating percentage vs non-treated membrane; type: biochemical; settings: 2 hours; for activity regarding the CB1 (receptor activating percentage regarding control): striate membranes 5 μg/pool, 1 μM of each drug, ambient temperature, variants compared with SeqID:1
Procedure: (§1) The receptor activating percentage was calculated regarding the control, non-treated membrane (100%). […] Significant differences are indicated and p<0.05.

CB2 receptor = assay: ELISA with striate membranes for CB2 receptor, receptor activating percentage vs non-treated membrane; type: biochemical; settings: striate membranes 5 μg/pool, 1 μM of each drug, 2 hours, ambient temperature
Procedure: as §1

[2] = Test in retroperitoneal adipose tissue, 3 days oral treatment; type: in vivo, Thin wistar rats; settings: 100 ug/Kg, 3 days orally, vs Rimonabant and/or saline groups
Procedure: (§2) Furthermore, in a treatment acute model (3 days of treatment orally in non-obese wistar rats) it was verified the brown adipose tissue activation, the retroperitoneal, inguinal and brown adipose tissues reduction, as well the adiposity ratio (FIGS. 4 to 9), effects not observed with Rimonabant.
The measure of the adipose tissue was performed after finishing the treatment. The results are expressed by the retroperitoneal adipose tissue weight measured for treatment purpose (scale of g/100 g). Rats administered with vehicle (saline) were subject to the same protocol (control).

[3] = Test in inguinal adipose tissue, 3 days oral treatment; type: in vivo, Thin wistar rats; settings: 100 ug/Kg, 3 days orally, vs Rimonabant and/or saline groups
Procedure: as §2
The measure of the adipose tissue was performed after finishing the treatment. The results are expressed by the inguinal adipose tissue weight measured at the treatment end (scale of g/100 g). Rats administered with vehicle (saline) were subject to the same protocol (control).

[4] = Test in brown adipose tissue, 3 days oral treatment; type: in vivo, Thin wistar rats
Procedure: as §2
The measure of the adipose tissue was performed after finishing the treatment. The results are expressed by the brown adipose tissue weight measured at the treatment end (scale of g/100 g). Rats administered with vehicle (saline) were subject to the same protocol (control).

[5] = Adiposity ratio determination, 3 days oral treatment; type: in vivo, Thin wistar rats; settings: 100 ug/Kg, 3 days orally, vs Rimonabant and/or saline groups
Procedure: as §2
Thin wistar rats were treated with a Rimonabant dosage (100 ug/Kg) or peptide 19 (Pep 19 100 ug/Kg) during 3 days orally. The measure of the adiposity ratio was performed after finishing the treatment using the formula (%), (I=Σ fat deposits/body weight×100). The results are expressed by the animal weight measured at the treatment end (scale of g/100 g). Rats administered with vehicle (saline) were subject to the same protocol (control).

[6] = Glucose in animals supplemented with 20% sucrose, 30 days-treatment; type: in vivo, Winstar rats; settings: Rimonabant (positive control, dose not given), 15th and 30th days of treatment
Procedure: (§3) Winstar rats fed with standard regimen supplemented with 20% sucrose were used in the drinking water during 60 days before and during the 30 days-treatment with SALINE (negative control), Rimonabant (positive control), Peptide 19 (Pep 19) in the concentration of 50 μg/Kg and Peptide 19 (Pep 19) in the concentration of 100 μg/Kg.

[7] = Cholesterol in animals supplemented with 20% sucrose, 30 days-treatment; type: in vivo, Wistar rats; settings: Rimonabant (positive control, dose not given), after 30 days-treatment
Procedure: as §3, with “Wistar” for “Winstar”

[8] = prior art statement; cited from earlier work
[9] = Activity on oral administration (statement, no separate method); type: in vivo, mammalian
[10] = Depression model (forced swim); type: in vivo; settings: rats
Procedure: The forced swim test was performed based on the previous tests ([Harkin et al., 2004], [Petit-Demouliere et al., 2005] and [Treit and Menard, 1998]).

[11] = Pain test: carrageenan-induced hyperalgesia, intraplantar administration; type: in vivo, Rats; settings: 20 g by leg, immediately before carrageenan 200 g by leg, 0 h and 3 h
Procedure: It was performed the comparative analysis of the peptide intraplantar administration over the carrageenan-induced hyperalgesia. Rats were treated with peptide ([…]) immediately before the carrageenan intraplantar administration ([…]) and were evaluated using a pressure apparatus […] (0 h and empty legs) and 3 h after administration of carrageenan (black legs).

CB1 receptor [12] = target: CB1 receptor (Homo sapiens, UniProt P21554); settings: disclosed in WO 2011/011847; cited from earlier work
Chain of CB1 receptor (Homo sapiens, UniProt P21554) (P21554 whole entry): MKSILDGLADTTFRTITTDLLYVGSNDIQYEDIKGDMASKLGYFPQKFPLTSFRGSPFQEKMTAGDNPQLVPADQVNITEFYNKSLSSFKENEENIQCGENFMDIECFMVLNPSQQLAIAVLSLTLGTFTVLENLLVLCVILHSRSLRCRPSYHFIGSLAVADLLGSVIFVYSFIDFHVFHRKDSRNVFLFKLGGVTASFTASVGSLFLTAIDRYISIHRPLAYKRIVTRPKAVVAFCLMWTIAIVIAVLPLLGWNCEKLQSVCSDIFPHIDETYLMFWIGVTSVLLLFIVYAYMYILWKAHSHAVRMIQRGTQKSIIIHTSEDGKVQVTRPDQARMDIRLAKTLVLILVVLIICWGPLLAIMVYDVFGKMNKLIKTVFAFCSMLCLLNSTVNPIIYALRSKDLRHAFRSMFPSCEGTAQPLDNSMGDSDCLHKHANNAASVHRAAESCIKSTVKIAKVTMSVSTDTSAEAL

Question: For “third amino acid of the SeqID:1 (isoleucine amino acid) was replaced for threonine: sequence wherein the third amino acid of the SeqID:1 (isoleucine) was replaced for threonine (DITADDEPLT; Artificial peptide modulator of cannabinoid receptors)”, which “activity regarding the CB1 (receptor activating percentage regarding control)” value (CB1 receptor [1]) is on record?
Answer: biological activity loss; also recorded: have not demonstrated activity detectable

Question: What about the “activity in CB2 (receptor activating percentage regarding control)” value (CB2 receptor) of the same compound?
Answer: have not demonstrated activity detectable

Question: With `Cc1c(C(=O)NN2CCCCC2)nn(-c2ccc(Cl)cc2Cl)c1-c1ccc(Cl)cc1` [Rimonabant] as the compound, how does the “retroperitoneal adipose tissue mass” value [2] read?
Answer: not observed

Question: And the “inguinal adipose tissue mass” value [3]?
Answer: not observed

Question: What about the “brown adipose tissue mass” value ([4]; 100 ug/Kg, 3 days orally, vs Rimonabant and/or saline groups) of the same compound?
Answer: not observed

Question: What about the “brown adipose tissue activation” value ([4]; 3 days of treatment orally in non-obese wistar rats) of the same compound?
Answer: not observed

Question: What about the adiposity ratio [5] of the same compound?
Answer: not observed

Question: And the glycaemia [6]?
Answer: lower glycaemia

Question: What about the “cholesterol in % from SALINE animals” value [7] of the same compound?
Answer: lower cholesterol percentages

Question: What about the “crossing the hematoencephalic barrier” value [8] of the same compound?
Answer: crossing the hematoencenphalic layer

Question: With DIIADDAPLT [Modified peptide 3] as the compound, how does the “activity regarding the CB1 (receptor activating percentage regarding control)” value (CB1 receptor [1]; listed as SeqID:3) read?
Answer: smaller activity

Question: What about the “activity when administered orally” value [9] of the same compound?
Answer: has activity even when orally administered

Question: With “DIIADDEPLT [Modified peptide 1, Asp-Ile-Ile-Ala-Asp-Asp-Glu-Pro-Leu-Thr]” as the compound, how does the “depression in forced swim test (immobility time)” value [10] read?
Answer: does not cause depression

Question: Which results are given for DILADDEPLT [Modified peptide 2]?
Answer: activity in CB2 (receptor activating percentage regarding control) (CB2 receptor; listed as SeqID:2): inverse agonist; activity when administered orally [9]: has activity even when administered orally

Question: What does the source list for DIIADDE [Modified peptide 4]?
Answer: activity regarding the CB1 (receptor activating percentage regarding control) (CB1 receptor [1]; listed as SeqID:4): improved inverse agonist activity; activity when administered orally [9]: has activity even when orally administered

Question: Which antihyperalgesic activity [11] does the source give for `CC(C)C[C@H](NC(=O)[C@H](Cc1ccccc1)NC(=O)[C@H](CCCCN)NC(=O)[C@H](Cc1ccccc1)NC(=O)[C@H](CC(N)=O)NC(=O)[C@@H](NC(=O)[C@@H]1CCCN1)C(C)C)C(=O)N[C@@H](CO)C(=O)N[C@@H](Cc1cnc[nH]1)C(=O)O` [hemopressin] here?
Answer: antihyperalgesic activity

Question: And the “crossing the hematoencephalic barrier” value [8]?
Answer: does not cross the hematoencephalic barrier

Question: And the “binding to the CB1 receptor” value (CB1 receptor [12])?
Answer: binding efficiently

Question: Which “activity when administered orally” value [9] does the source give for “Cyclic Peptide -Asp-Ile-Ile-Ala-Asp-Asp-Glu-Pro-Leu-Thr- (DIIADDEPLT; cyclic; Artificial cyclic peptide modulator of cannabinoid receptors) [Modified peptide 6]” here?
Answer: has activity even when orally administered

Question: Which results are given for DIIADDEALT [Modified peptide 5]?
Answer: activity in CB1 / endocannabinoid receptors in high dosages (CB1 receptor [1]; different dosages of drug, high dosages, listed as SeqID:5): agonist activity; activity in CB1 / endocannabinoid receptors in low dosages (CB1 receptor [1]; different dosages of drug, low dosages, listed as SeqID:5): activity inverse agonist; activity when administered orally [9]: has activity even when orally administered
